The numbers were not newly measured in patent publication US6676966B1, “Extended release metformin hydrochloride formulations” (Intellipharmaceutics Corp., priority 2000, dated 2004), which cites them from elsewhere.

Where a name gives a salt, the structure may show the parent alone.

The conditions of this data set: single 850 mg immediate release tablet with food vs same tablet without food.

Consider `CN(C)C(=N)N=C(N)N` [metformin, Metformin hydrochloride], for which the “lower AUC in plasma with food” value is listed as 25%, the “lower peak concentration in plasma with food” value is recorded as approximately 40% and the “prolongation of time to peak plasma concentration with food” value is 35 min.
